Drawing on paper PMC8999638, “Identification of Entry Inhibitors against Delta and Omicron Variants of SARS-CoV-2” (International Journal of Molecular Sciences, 2022), this text covers EC50 for 2 compounds.

What all share (experiment): microbe, parasite or virus in culture
Assay type in all cases: cell-based, SARS-CoV-2

Assay [1] concerns pseudovirus carrying spike protein of the alpha variant. To be noted: read-out: EC50 (nM) (Alpha).
The test system of assay [2] is pseudovirus carrying spike protein of the beta variant. The note with it: read-out: EC50 (nM) (Beta).
Assay [3] concerns pseudovirus carrying spike protein of the delta variant. To be noted: read-out: EC50 (nM) (Delta).
For assay [4], the system named is pseudovirus carrying spike protein of the omicron variant. To be noted: read-out: EC50 (nM) (Omicron).
The subject of assay [5] is pseudoviruses carrying spike proteins of different variants. The note with it: Severe acute respiratory syndrome coronavirus 2, read-out: EC50 values against different variants (span).

Regarding `C[C@@H]1CCO[C@H]2Cn3cc(C(=O)NCc4ccc(F)cc4F)c(=O)c(O)c3C(=O)N12` [Dolutegravir sodium], the EC50 is 15.8 nM in assay [1]; 10.2 nM in assay [2]; 3 nM in assay [3]; 2.6 nM in assay [4]; 10.2 to 22.9 nM in assay [5].

Regarding `Cc1cc(C#N)cc(C)c1Oc1nc(Nc2ccc(C#N)cc2)nc(N)c1Br` [Etravirine], the EC50 was 4.9 nM in assay [1]; 4.5 nM in assay [2]; 2.9 nM in assay [3]; 3 nM in assay [4]; 4.5 to 5.8 nM in assay [5].
